According to PubChem BioAssay (NCI):
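In this assay, cells in 96-well plates receive the compound at five concentrations for 48 hours. Endpoints are linearly interpolated between the surrounding concentrations. Definition used: TGI = concentration required for complete inhibition of growth.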

Legend:
Test in all cases: growth of human tumour cells (NCI), 48 h
786-0 renal = test system: 786-0 renal
A498 renal = test system: A498 renal
A549 NSCLC = test system: A549 NSCLC
ACHN renal = test system: ACHN renal
CAKI-1 renal = test system: CAKI-1 renal
CCRF-CEM leukemia = test system: CCRF-CEM leukemia
DMS 273 small cell lung = test system: DMS 273 small cell lung
EKVX NSCLC = test system: EKVX NSCLC
HCC-2998 colon = test system: HCC-2998 colon
HCT-116 colon = test system: HCT-116 colon
HCT-15 colon = test system: HCT-15 colon
HL-60(TB) leukemia = test system: HL-60(TB) leukemia
HOP-62 NSCLC = test system: HOP-62 NSCLC
HOP-92 NSCLC = test system: HOP-92 NSCLC
HT29 colon = test system: HT29 colon
IGROV1 ovarian = test system: IGROV1 ovarian
K-562 leukemia = test system: K-562 leukemia
KM12 colon = test system: KM12 colon
LOX IMVI melanoma = test system: LOX IMVI melanoma
LXFL 529 NSCLC = test system: LXFL 529 NSCLC
M14 melanoma = test system: M14 melanoma
MOLT-4 leukemia = test system: MOLT-4 leukemia
NCI-H226 lung = test system: NCI-H226 lung
NCI-H23 lung = test system: NCI-H23 lung
NCI-H460 lung = test system: NCI-H460 lung
NCI-H522 lung = test system: NCI-H522 lung
OVCAR-3 ovarian = test system: OVCAR-3 ovarian
OVCAR-5 ovarian = test system: OVCAR-5 ovarian
OVCAR-8 ovarian = test system: OVCAR-8 ovarian
RXF 393 renal = test system: RXF 393 renal
SF-268 CNS = test system: SF-268 CNS
SF-295 CNS = test system: SF-295 CNS
SF-539 CNS = test system: SF-539 CNS
SK-MEL-2 melanoma = test system: SK-MEL-2 melanoma
SK-MEL-28 melanoma = test system: SK-MEL-28 melanoma
SK-MEL-5 melanoma = test system: SK-MEL-5 melanoma
SK-OV-3 ovarian = test system: SK-OV-3 ovarian
SN12C renal = test system: SN12C renal
SNB-19 CNS = test system: SNB-19 CNS
SNB-78 CNS = test system: SNB-78 CNS
SR leukemia = test system: SR leukemia
SW-620 colon = test system: SW-620 colon
TK-10 renal = test system: TK-10 renal
U251 CNS = test system: U251 CNS
UACC-257 melanoma = test system: UACC-257 melanoma
UACC-62 melanoma = test system: UACC-62 melanoma
UO-31 renal = test system: UO-31 renal
BT-549 breast = test system: BT-549 breast
COLO 205 colon = test system: COLO 205 colon
DU-145 prostate = test system: DU-145 prostate
HS 578T breast = test system: HS 578T breast
MALME-3M melanoma = test system: MALME-3M melanoma
MCF7 breast = test system: MCF7 breast
MDA-MB-231 breast = test system: MDA-MB-231 breast
MDA-MB-435 = test system: MDA-MB-435
MDA-N = test system: MDA-N
NCI/ADR-RES ovarian = test system: NCI/ADR-RES ovarian
OVCAR-4 ovarian = test system: OVCAR-4 ovarian
PC-3 prostate = test system: PC-3 prostate
RPMI-8226 leukemia = test system: RPMI-8226 leukemia
SNB-75 CNS = test system: SNB-75 CNS
T-47D breast = test system: T-47D breast

For `CN=C(NC)N(C)c1nc(=[N+](C)C)ss1`, the TGI (786-0 renal) was over 100 µM, the TGI (A498 renal) was over 100 µM and the TGI (A549 NSCLC) was over 100 µM. The TGI (ACHN renal) was over 100 µM, the TGI (CAKI-1 renal) was 98.3 µM and the TGI (CCRF-CEM leukemia) was over 100 µM. For the same compound, the TGI (DMS 273 small cell lung) was over 100 µM, the TGI (EKVX NSCLC) was over 100 µM and the TGI (HCC-2998 colon) was over 100 µM. The TGI (HCT-116 colon) was over 100 µM, the TGI (HCT-15 colon) was over 100 µM and the TGI (HL-60(TB) leukemia) was over 100 µM. It also gave a TGI (HOP-62 NSCLC) of over 100 µM, a TGI (HOP-92 NSCLC) of over 100 µM and a TGI (HT29 colon) of over 100 µM. For the same compound, the TGI (IGROV1 ovarian) was over 100 µM, the TGI (K-562 leukemia) was over 100 µM and the TGI (KM12 colon) was over 100 µM. The TGI (LOX IMVI melanoma) was over 100 µM, the TGI (LXFL 529 NSCLC) was over 100 µM and the TGI (M14 melanoma) was over 100 µM. The TGI (MOLT-4 leukemia) was over 100 µM, the TGI (NCI-H226 lung) was over 100 µM and the TGI (NCI-H23 lung) was over 100 µM. The TGI (NCI-H460 lung) was over 100 µM, the TGI (NCI-H522 lung) was over 100 µM and the TGI (OVCAR-3 ovarian) was over 100 µM. It also gave a TGI (OVCAR-5 ovarian) of over 100 µM, a TGI (OVCAR-8 ovarian) of over 100 µM and a TGI (RXF 393 renal) of over 100 µM. It also gave a TGI (SF-268 CNS) of over 100 µM, a TGI (SF-295 CNS) of over 100 µM and a TGI (SF-539 CNS) of over 100 µM. It also gave a TGI (SK-MEL-2 melanoma) of over 100 µM, a TGI (SK-MEL-28 melanoma) of over 100 µM and a TGI (SK-MEL-5 melanoma) of over 100 µM. It also gave a TGI (SK-OV-3 ovarian) of over 100 µM, a TGI (SN12C renal) of over 100 µM and a TGI (SNB-19 CNS) of over 100 µM. It also gave a TGI (SNB-78 CNS) of over 100 µM, a TGI (SR leukemia) of over 100 µM and a TGI (SW-620 colon) of over 100 µM. The TGI (TK-10 renal) was over 100 µM, the TGI (U251 CNS) was over 100 µM and the TGI (UACC-257 melanoma) was over 100 µM. It also gave a TGI (UACC-62 melanoma) of over 100 µM and a TGI (UO-31 renal) of over 100 µM.

In the case of `COc1ccc(/C=C(/c2ccccc2)c2c(C)cc(C)c(/C(=C\c3ccc(OC)cc3)c3ccccc3)c2N=Nc2cc(C)cc(C)c2)cc1`, the TGI (786-0 renal) is reported as over 100 µM, the TGI (A498 renal) is reported as over 100 µM and the TGI (A549 NSCLC) is reported as over 100 µM. It also gave a TGI (ACHN renal) of over 100 µM, a TGI (BT-549 breast) of over 100 µM and a TGI (CAKI-1 renal) of over 100 µM. The TGI (CCRF-CEM leukemia) was over 100 µM, the TGI (COLO 205 colon) was 24.3 µM and the TGI (DU-145 prostate) was over 100 µM. For the same compound, the TGI (EKVX NSCLC) was over 100 µM, the TGI (HCC-2998 colon) was over 25.8 µM and the TGI (HCT-116 colon) was over 87.8 µM. The TGI (HCT-15 colon) was over 100 µM, the TGI (HL-60(TB) leukemia) was over 42.4 µM and the TGI (HOP-62 NSCLC) was over 100 µM. The TGI (HOP-92 NSCLC) was over 100 µM, the TGI (HS 578T breast) was over 100 µM and the TGI (HT29 colon) was over 100 µM. For the same compound, the TGI (IGROV1 ovarian) was over 100 µM, the TGI (K-562 leukemia) was over 100 µM and the TGI (KM12 colon) was over 71.9 µM. For the same compound, the TGI (LOX IMVI melanoma) was over 100 µM, the TGI (M14 melanoma) was over 100 µM and the TGI (MALME-3M melanoma) was 56.6 µM. It also gave a TGI (MCF7 breast) of over 100 µM, a TGI (MDA-MB-231 breast) of 16 µM and a TGI (MDA-MB-435) of over 62.2 µM. For the same compound, the TGI (MDA-N) was over 100 µM, the TGI (MOLT-4 leukemia) was over 100 µM and the TGI (NCI-H226 lung) was over 100 µM. The TGI (NCI-H23 lung) was over 83.8 µM, the TGI (NCI-H460 lung) was over 75.2 µM and the TGI (NCI-H522 lung) was over 64.1 µM. It also gave a TGI (NCI/ADR-RES ovarian) of over 100 µM, a TGI (OVCAR-3 ovarian) of 30.2 µM and a TGI (OVCAR-4 ovarian) of over 100 µM. The TGI (OVCAR-5 ovarian) was over 100 µM, the TGI (OVCAR-8 ovarian) was over 100 µM and the TGI (PC-3 prostate) was over 100 µM. It also gave a TGI (RPMI-8226 leukemia) of over 100 µM, a TGI (RXF 393 renal) of over 95.9 µM and a TGI (SF-268 CNS) of over 100 µM. For the same compound, the TGI (SF-295 CNS) was over 100 µM, the TGI (SF-539 CNS) was over 100 µM and the TGI (SK-MEL-2 melanoma) was 21.8 µM. It also gave a TGI (SK-MEL-28 melanoma) of over 100 µM, a TGI (SK-MEL-5 melanoma) of 37.6 µM and a TGI (SK-OV-3 ovarian) of over 100 µM. The TGI (SN12C renal) was 23.4 µM, the TGI (SNB-19 CNS) was over 100 µM and the TGI (SNB-75 CNS) was 34.2 µM. For the same compound, the TGI (SR leukemia) was over 100 µM, the TGI (SW-620 colon) was over 100 µM and the TGI (T-47D breast) was over 100 µM. For the same compound, the TGI (TK-10 renal) was over 74.4 µM, the TGI (U251 CNS) was over 100 µM and the TGI (UACC-257 melanoma) was 18.8 µM. It also gave a TGI (UACC-62 melanoma) of over 100 µM and a TGI (UO-31 renal) of over 100 µM.
